Assays:
Assay type in all cases: in vivo
H22 liver cancer = experiment: Inhibition of KM mice-transplanted tumor of H22 liver cancer
Experimental: (1) Animal Kunming mice, half male and half female, body weight 16˜27 g.
Cell Lines H22 cell lines were mice liver cancer cells, and were subjected to suspension growth in RPMI-1640 media containing 10% calf serum, 100 U·ml^−1 penicillin, 100 μg·ml^−1 streptomycin, and cultured in an incubator at 37° C. under 5% CO2, followed by changing the medium and subculturing every two or three days.
(§1) Cell Culture H22 cells in exponential phase of growth were collected, centrifugated at 1000 rpm for 5 min, and washed twice. Viable cells were counted by trypan blue staining. The cells were quickly inoculated in abdominal cavity of KM mice, and after 7˜10 days, ascites were drawn and subcutaneously inoculated at the left forelimb armpit of mice at 0.2 ml/animal (containing about 2×10^7 cells). When tumor grew to 1 cm×1 cm×1 cm, mice were used in experiment. Mice tumors were aseptically stripped, and washed with Hank's solution thrice, to remove blood, fat and necrotic tissues. Tumors were cut to broken pieces of 1 mm×1 mm×1 mm, and washed with Hank's solution twice, to which physiological saline was added at a ratio of (1 g:3 ml), and then ground in a glass homogenizer and filtered by 80-100 mesh sieve to make a suspension of single cell. Viable cells were counted by trypan blue staining.
(§2) On the second day after inoculation, a dosage of 0.2 ml·10 g^−1 was administrated by intravenous injection (iv), once a day. When the average tumor weight in negative group was more than 1.0 g (tumor volume being about 0.5 cm^3), the experiment was stopped, and mice were sacrificed by cervical vertebrae removal and weighed. Tumors were stripped to calculate inhibitory rate.

human brain glioma = experiment: Inhibition of mice-transplanted human brain glioma; conditions: for Inhibitmy rate / Tumor weight: 15 days, mice
Experimental: Human brain glioma cell lines were obtained from Key Laboratory of Transplant Engineering and Immunology, Ministry of health, West China Hospital, Sichuan University.
(1) Model establishment Mice were divided into groups, 10 mice for each group. The solution of brain glioblastoma cell lines was suitably diluted, and inoculated in cortex of left temporal lobe of mice, respectively.
Administration and intervention 24 h after inoculation, mice in each group were administrated by intraperitoneal injection. […] Each group was administrated for successive 15 days.
Determination of tumor inhibitory rate On the last day, the administration was stopped, and all mice were sacrificed and dissected. Tumor tissues were stripped and weighed. Tumor inhibitory rate %=(The mean tumor weight of control group−The mean tumor weight of drug groups)[The mean tumor weight of control group]×100%.
Statistical method The variance analysis of data was performed using the statistical program software package (SPSS13.0 for Windows), and p<0.05 was considered to be a statistically significant difference.

Lewis lung cancer = experiment: Inhibition of mice-transplanted tumor of Lewis lung cancer C57BL/6; conditions: for Inhibitory rate / Tumor weight: 12 times
Experimental: Animal C57BL/6 mice, body weight 13˜20 g, half male and half female.
Cell Lines Lewis cells were mice lung cancer cells, and grew adhering to the wall in RPMI-1640 media containing 10% calf serum, 100 U·ml^−1 penicillin, 100 μg·ml^−1 streptomycin, and were cultured in an incubator at 37° C. under 5% CO2, followed by changing the medium and subculturing every two or three days.
as §1, with “Viable” for “Cell Culture H22 cells in exponential phase of growth were collected, centrifugated at 1000 rpm for 5 min, and washed twice. Viable”, “Cell suspension was” for “The cells were quickly inoculated in abdominal cavity of KM mice, and after 7˜10 days, ascites were drawn and”, “1×10^7 cells), and after” for “2×10^7 cells). When”
as §2, with “administrated to each group” for “administrated”, “peritoneal” for “intravenous”, “(ip) for successive 12 times,” for “(iv),”, “the” for “the average”, “negative control” for “negative”

[1] = compared with the negative control group, obvious in the dosage groups of 10 mg/kg-60 mg/kg
[2] = 1 mg·kg^−1 intraperitoneal injection
[3] = 5 mg·kg^−1 intraperitoneal injection
[4] = 10 mg·kg^−1 intraperitoneal injection
[5] = 20 mg·kg^−1 intraperitoneal injection
[6] = 30 mg·kg^−1 intraperitoneal injection
[7] = 40 mg·kg^−1 intraperitoneal injection
[8] = 50 mg·kg^−1 intraperitoneal injection
[9] = 60 mg·kg^−1 intraperitoneal injection
[10] = 70 mg·kg^−1 intraperitoneal injection
[11] = 80 mg·kg^−1 intraperitoneal injection
[12] = 90 mg·kg^−1 intraperitoneal injection
[13] = 100 mg·kg^−1 intraperitoneal injection

## O=C(/C=C/c1ccc(O)c(O)c1)O[C@@H]1C[C@](O)(C(=O)O)C[C@@H](O)[C@H]1O [Chlorogenic acid of the present invention]
H22 liver cancer; 1 mg·kg^−1 iv once a day
  Inhibitory rate: 8.8%
  Tumor weight: 2.141 ± 0.333 g
H22 liver cancer; 5 mg·kg^−1 iv once a day
  Inhibitory rate: 24.7%
  Tumor weight: 1.768 ± 0.667 g
H22 liver cancer; 10 mg·kg^−1 iv once a day
  Inhibitory rate: 46.3%
  Tumor weight: 1.261 ± 0.388 g
H22 liver cancer; 20 mg·kg^−1 iv once a day
  Inhibitory rate: 54.8%
H22 liver cancer; 30 mg·kg^−1 iv once a day
  Inhibitory rate: 67.9%
  Tumor weight: 0.754 ± 0.071 g
H22 liver cancer; 40 mg·kg^−1 iv once a day
  Inhibitory rate: 72.2%
  Tumor weight: 0.653 ± 0.238 g
H22 liver cancer; 50 mg·kg^−1 iv once a day
  Inhibitory rate: 57.5%
  Tumor weight: 0.998 ± 0.207 g
H22 liver cancer; 60 mg·kg^−1 iv once a day
  Inhibitory rate: 42.9%
  Tumor weight: 1.341 ± 0.356 g
H22 liver cancer; 70 mg·kg^−1 iv once a day
  Inhibitory rate: 31.9%
H22 liver cancer; 80 mg·kg^−1 iv once a day
  Inhibitory rate: 24.1%
  Tumor weight: 1.782 ± 0.122 g
H22 liver cancer; 90 mg·kg^−1 iv once a day
  Inhibitory rate: 16.7%
  Tumor weight: 1.956 ± 0.581 g
H22 liver cancer; 100 mg·kg^−1 iv once a day
  Inhibitory rate: 11.5%
  Tumor weight: 2.078 ± 0.326 g
H22 liver cancer; [1]
  inhibitory action on KM mice-transplanted tumor of H22 liver cancer: obviously inhibitory action
Human brain glioma; [2]
  Inhibitmy rate: 13.30%
  Tumor weight: 1.258 ± 0.254 g
Human brain glioma; [3]
  Inhibitmy rate: 16.06%
  Tumor weight: 1.218 ± 0.187 g
Human brain glioma; [4]
  Inhibitmy rate: 52.45%
  Tumor weight: 0.690 ± 0.128 g
Human brain glioma; [5]
  Inhibitmy rate: 70.71%
Human brain glioma; [6]
  Inhibitmy rate: 68.57%
  Tumor weight: 0.456 ± 0.128 g
Human brain glioma; [7]
  Inhibitmy rate: 62.03%
  Tumor weight: 0.551 ± 0.087 g
Human brain glioma; [8]
  Inhibitmy rate: 56.65%
  Tumor weight: 0.629 ± 0.068 g
Human brain glioma; [9]
  Inhibitmy rate: 51.69%
  Tumor weight: 0.701 ± 0.256 g
Human brain glioma; [10]
  Inhibitmy rate: 31.22%
  Tumor weight: 0.998 ± 0.212 g
Human brain glioma; [11]
  Inhibitmy rate: 18.06%
Human brain glioma; [12]
  Inhibitmy rate: 13.23%
  Tumor weight: 1.259 ± 0.124 g
Human brain glioma; [13]
  Inhibitmy rate: 8.27%
  Tumor weight: 1.331 ± 0.156 g
Human brain glioma; [1]
  inhibitory action on mice-transplanted tumor of human brain glioma: obviously inhibitory action
Lewis lung cancer; 1 mg·kg^−1 ip once a day
  Inhibitory rate: 2.6%
  Tumor weight: 1.445 ± 0.772 g
Lewis lung cancer; 5 mg·kg^−1 ip once a day
  Inhibitory rate: 14.2%
  Tumor weight: 1.273 ± 0.258 g
Lewis lung cancer; 10 mg·kg^−1 ip once a day
  Inhibitory rate: 56.5%
  Tumor weight: 0.646 ± 0.230 g
Lewis lung cancer; 20 mg·kg^−1 ip once a day
  Inhibitory rate: 74.6%
Lewis lung cancer; 30 mg·kg^−1 ip once a day
  Inhibitory rate: 78.3%
  Tumor weight: 0.322 ± 0.111 g
Lewis lung cancer; 40 mg·kg^−1 ip once a day
  Inhibitory rate: 76.4%
  Tumor weight: 0.350 ± 0.078 g
Lewis lung cancer; 50 mg·kg^−1 ip once a day
  Inhibitory rate: 65.6%
  Tumor weight: 0.510 ± 0.241 g
Lewis lung cancer; 60 mg·kg^−1 ip once a day
  Inhibitory rate: 59.2%
  Tumor weight: 0.605 ± 0.363 g
Lewis lung cancer; 70 mg·kg^−1 ip once a day
  Inhibitory rate: 32.3%
  Tumor weight: 1.005 ± 0.657 g
Lewis lung cancer; 80 mg·kg^−1 ip once a day
  Inhibitory rate: 24.8%
Lewis lung cancer; 90 mg·kg^−1 ip once a day
  Inhibitory rate: 17.6%
  Tumor weight: 1.223 ± 0.314 g
Lewis lung cancer; 100 mg·kg^−1 ip once a day
  Inhibitory rate: 11.3%
  Tumor weight: 1.316 ± 0.352 g
Lewis lung cancer; [1]
  inhibitory action on mice-transplanted tumor of Lewis lung cancer C57BL/6: obviously inhibitory action

## O=C(/C=C/c1ccc(O)c(O)c1)O[C@@H]1C[C@](O)(C(=O)O)C[C@@H](O)[C@H]1O [Commercially available chlorogenic acid, chlorogenic acid, reference compound]
H22 liver cancer; 1 mg·kg^−1 iv once a day
  Inhibitory rate: 5.1%
  Tumor weight: 2.228 ± 0.538 g
H22 liver cancer; 5 mg·kg^−1 iv once a day
  Inhibitory rate: 17.4%
  Tumor weight: 1.939 ± 0.357 g
H22 liver cancer; 10 mg·kg^−1 iv once a day, listed as Commercially availaavailable chlorogenic
  Inhibitory rate: 32.6%
H22 liver cancer; 20 mg·kg^−1 iv once a day, listed as Commercially availaavailable chlorogenic
  Inhibitory rate: 31.8%
H22 liver cancer; 30 mg·kg^−1 iv once a day
  Inhibitory rate: 31.9%
H22 liver cancer; 40 mg·kg^−1 iv once a day
  Inhibitory rate: 28.1%
H22 liver cancer; 50 mg·kg^−1 iv once a day
  Inhibitory rate: 23.4%
  Tumor weight: 1.799 ± 0.462 g
H22 liver cancer; 60 mg·kg^−1 iv once a day
  Inhibitory rate: 21.3%
  Tumor weight: 1.848 ± 0.741 g
H22 liver cancer; 70 mg·kg^−1 iv once a day
  Inhibitory rate: 14.6%
  Tumor weight: 2.005 ± 0.345 g
H22 liver cancer; 80 mg·kg^−1 iv once a day
  Inhibitory rate: 13.7%
  Tumor weight: 2.026 ± 0.611 g
H22 liver cancer; 90 mg·kg^−1 iv once a day
  Inhibitory rate: 9.8%
  Tumor weight: 2.118 ± 0.557 g
H22 liver cancer; 100 mg·kg^−1 iv once a day
  Inhibitory rate: 7.2%
  Tumor weight: 2.179 ± 0.341 g
Human brain glioma; [2]
  Inhibitmy rate: 9.10%
  Tumor weight: 1.319 ± 0.245 g
Human brain glioma; [3]
  Inhibitmy rate: 11.16%
  Tumor weight: 1.289 ± 0.289 g
Human brain glioma; [4]
  Inhibitmy rate: 19.09%
Human brain glioma; [5]
  Inhibitmy rate: 24.12%
Human brain glioma; [6]
  Inhibitmy rate: 30.74%
  Tumor weight: 1.005 ± 0.225 g
Human brain glioma; [7]
  Inhibitmy rate: 31.91%
  Tumor weight: 0.988 ± 0.025 g
Human brain glioma; [8]
  Inhibitmy rate: 23.85%
Human brain glioma; [9]
  Inhibitmy rate: 22.47%
Human brain glioma; [10]
  Inhibitmy rate: 15.58%
  Tumor weight: 1.225 ± 0.534 g
Human brain glioma; [11]
  Inhibitmy rate: 12.13%
  Tumor weight: 1.275 ± 0.043 g
Human brain glioma; [12]
  Inhibitmy rate: 11.30%
  Tumor weight: 1.287 ± 0.323 g
Human brain glioma; [13]
  Inhibitmy rate: 7.79%
  Tumor weight: 1.338 ± 0.187 g
Lewis lung cancer; 1 mg·kg^−1 ip once a day
  Inhibitory rate: 3.2%
  Tumor weight: 1.437 ± 0.466 g
Lewis lung cancer; 5 mg·kg^−1 ip once a day
  Inhibitory rate: 6.6%
  Tumor weight: 1.386 ± 0.398 g
Lewis lung cancer; 10 mg·kg^−1 ip once a day
  Inhibitory rate: 23.5%
Lewis lung cancer; 20 mg·kg^−1 ip once a day
  Inhibitory rate: 32.9%
  Tumor weight: 0.996 ± 0.428 g
Lewis lung cancer; 30 mg·kg^−1 ip once a day
  Inhibitory rate: 32.5%
  Tumor weight: 1.001 ± 0.204 g
Lewis lung cancer; 40 mg·kg^−1 ip once a day
  Inhibitory rate: 31.8%
  Tumor weight: 1.012 ± 0.369 g
Lewis lung cancer; 50 mg·kg^−1 ip once a day
  Inhibitory rate: 25.3%
Lewis lung cancer; 60 mg·kg^−1 ip once a day
  Inhibitory rate: 21.6%
Lewis lung cancer; 70 mg·kg^−1 ip once a day
  Inhibitory rate: 17.8%
  Tumor weight: 1.220 ± 0.237 g
Lewis lung cancer; 80 mg·kg^−1 ip once a day
  Inhibitory rate: 14.2%
  Tumor weight: 1.273 ± 0.511 g
Lewis lung cancer; 90 mg·kg^−1 ip once a day
  Inhibitory rate: 12.4%
  Tumor weight: 1.300 ± 0.462 g
Lewis lung cancer; 100 mg·kg^−1 ip once a day
  Inhibitory rate: 8.6%
  Tumor weight: 1.356 ± 0.338 g

— patent US10314806B2 (SICHUAN JIUZHANG BIOLOGICAL SCIENCE AND TECHNOLOGY CO., LTD., priority 2014, dated 2019)
